# Assay results as given in patent US10233195B2, “Anti-fibrotic pyridinones” (InterMune, Inc., priority 2014, dated 2019).
# Key:
# [1] = test system: Fibroblasts (primary human lung and dermal, HFL-1, 3T3 etc); assay: Cell proliferation assay (BrdU incorporation); assay type: cell-based; conditions: HFL1, stimulant (LPA, TGFb, serum etc), 50% inhibition of the increase of BrdU incorporation
# Description: Assay of Inhibitory Effect on Cell Proliferation (BrdU Incorporation)
# Fibroblasts (primary human lung and dermal, HFL-1, 3T3 etc) were plated on a 96-well plate and serum starved for 24-48 hours. The media were then exchanged for media containing stimulants (LPA, TGFb, serum etc) and cultured further for 16-24 hours before BrdU addition. After culturing for another 8 hours, cells were washed with PBS and the amount of BrdU incorporated into the cells was assayed by absorbance at 450 nm using the Cell proliferation ELISA system (RPN250, Amersham LIFE SCIENCE). The difference between the amount of BrdU incorporated in the stimulant-added well and the amount of BrdU incorporated in the well containing no stimulant represented the amount of BrdU incorporation accelerated by stimulant. The increase of BrdU incorporation without the addition of test compounds was set as 100% and the concentration of compound with 50% inhibition in the increase of BrdU incorporation (IC50 value) was determined. The test compounds were added 0-30 min before stimulant addition.
# Compounds of some embodiments were prepared according to synthetic methods described herein and assay data obtained for IC50 for BrdU inhibition. The assay data obtained is presented in Table 3, in which A=less than 50 μM, B=greater than or equal to 50 μM and less than or equal to 200 μM; and C=greater than 200 μM.
# [2] = test system: TGF-b induced Endothelin-1 production; assay: ET-1 assay: inhibitory effect on TGF-b induced endothelin-1 production; assay type: cell-based; conditions: Homo sapiens, Fibroblast; fibroblasts, stimulant (TGFb, serum, LPA etc), ET-1 in media by ELISA, 4-parameter fit
# Procedure, shortened: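 Fibroblasts (primary human lung/dermal, HFL-1, 3T3) serum-starved 0-48 h, preincubated ~30 min with compound, then stimulated (TGFb, serum or LPA) for 16-48 h. Secreted ET-1 measured by ELISA; EC50 from 4-parameter logistic fit, with CC50 from ATPlite in the same wells.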
Structure (SMILES),IC50 [1] [µM],EC50 [2] [µM]
Cc1cc(=O)n(-c2ccc(OC(F)(F)F)cc2)cc1-c1ccc2nonc2c1 [Compound 259],< 50,50 to 200
Cc1cc(=O)n(-c2ccc(OC(F)(F)F)cc2)cc1-c1ccc2ncsc2c1 [Compound 260],< 50,50 to 200
Cc1cc(=O)n(-c2ccc(OC(F)(F)F)cc2)cc1-c1cccc2scnc12 [Compound 261],< 50,> 200
Cc1cc(=O)n(-c2ccc(OC(F)(F)F)cc2)cc1-c1cscn1 [Compound 262],< 50,50 to 200
Cc1cc(=O)n(-c2ccc(OC(F)(F)F)cc2)cc1-c1cccc2ncsc12 [Compound 263],< 50,< 50
COc1cccc(-n2cc(C(F)(F)F)ccc2=O)c1 [Compound 276],> 200,> 200
CCOc1ccc(-n2cc(C(F)(F)F)ccc2=O)c(C)c1 [Compound 278],50 to 200,50 to 200
Cc1ccc(=O)n(-c2cc(F)c(F)c(F)c2)c1 [Compound 282],> 200,> 200
CC(C)c1ccc(=O)n(-c2ccccc2)c1 [Compound 285],> 200,> 200
O=c1ccc(-c2ccc(F)cc2)cn1-c1ccccc1F [Compound 290],> 200,50 to 200
O=c1ccc(-c2ccccc2)cn1-c1cncnc1 [Compound 300],> 200,> 200
CC(C)Oc1ccc(-n2cc(-c3cccc(Cl)c3)ccc2=O)cc1 [Compound 316],< 50,< 50
Cc1ccc(=S)n(-c2ccc(OC(F)(F)F)cc2)c1 [Compound 333],> 200,50 to 200
Cc1cc(-c2ccc(F)cc2)cn(-c2ccc(OC(F)(F)F)cc2)c1=O [Compound 350],50 to 200,50 to 200
Cc1cc(-c2ccc(F)cc2)cn(-c2ccccc2)c1=O [Compound 351],50 to 200,< 50
Cc1cc(-c2cnn(C)c2)cn(-c2ccccc2)c1=O [Compound 353],> 200,50 to 200
Cc1ccc(=O)n(-c2ccc(OC(F)(F)F)cc2)n1 [Compound 360],50 to 200,< 50
O=c1ccc(-c2cn[nH]c2)cn1-c1ccc(OC(F)(F)F)cc1 [Compound 374],50 to 200,< 50
CCOc1ccc(-n2cc(-c3cn[nH]c3)ccc2=O)c(C)c1 [Compound 376],> 200,< 50
Cc1n[nH]c(C)c1-c1ccc(=O)n(-c2ccc(OC(F)(F)F)cc2)c1 [Compound 383],50 to 200,50 to 200
O=c1ccc(-c2cnn(Cc3ccccc3)c2)cn1-c1ccccc1 [Compound 385],< 50,50 to 200

Structure (SMILES),IC50 [1] [µM],EC50 [2] [µM]
CCOc1ccc(-n2cc(-c3c(C)n[nH]c3C)ccc2=O)c(C)c1 [Compound 387],50 to 200,50 to 200
Cc1c(-c2ccc(=O)n(-c3ccc(OC(F)(F)F)cc3)c2)cnn1C [Compound 391],50 to 200,< 50
Cn1cc(-c2cn(-c3ccc(OC(F)(F)F)cc3)c(=O)c3c2ccn3C)cn1 [Compound 394],< 50,< 50
Cn1cc(-c2cn(-c3ccc(C#N)cc3)c(=O)c3cccnc23)cn1 [Compound 395],50 to 200,50 to 200
O=c1c2nccnc2c(-c2cn[nH]c2)cn1-c1ccc(Cl)cc1 [Compound 399],< 50,> 200
O=c1c2nccnc2c(-c2cn[nH]c2)cn1-c1ccc(OC(F)(F)F)cc1 [Compound 400],< 50,< 50
Cn1cc(-c2cn(-c3ccc(OC(F)(F)F)cc3)c(=O)cc2C#N)cn1 [Compound 402],> 200,< 50
CCOc1ccc(-n2cc(-c3cnn(C)c3)c(Oc3ccccc3)cc2=O)c(C)c1 [Compound 403],< 50,< 50
Cn1cc(-c2cn(-c3ccc(OC(F)(F)F)cc3)c(=O)cc2NCc2ccc(F)cc2F)cn1 [Compound 404],< 50,< 50
Cn1cc(-c2cn(-c3ccc(OC(F)(F)F)cc3)c(=O)cc2NCc2ccc(Cl)cc2Cl)cn1 [Compound 405],< 50,< 50
Cn1cc(-c2cn(-c3ccc(OC(F)(F)F)cc3)c(=O)cc2NCc2ccc(Cl)cc2)cn1 [Compound 406],< 50,50 to 200
Cn1cc(-c2cn(-c3ccc(OC(F)(F)F)cc3)c(=O)cc2NCc2ccc(F)cc2)cn1 [Compound 407],< 50,< 50
Cn1cc(-c2cn(-c3ccc(OC(F)(F)F)cc3)c(=O)cc2Oc2ccc(F)cc2)cn1 [Compound 410],< 50,< 50
Cn1cc(-c2cn(-c3ccc(OC(F)(F)F)cc3)c(=O)cc2NCc2cnccn2)cn1 [Compound 411],< 50,50 to 200
Cn1cc(-c2cn(-c3ccc(OC(F)(F)F)cc3)c(=O)cc2Oc2cccc(Cl)c2)cn1 [Compound 413],< 50,< 50
Cn1cc(-c2cn(-c3ccc(OC(F)(F)F)cc3)c(=O)cc2Oc2ccccc2Cl)cn1 [Compound 414],< 50,< 50
Cc1cc(=O)n(-c2ccc(OC(F)(F)F)cc2)cc1-c1cccc2c1OC(F)(F)O2 [Compound 415],< 50,< 50
CCOC(=O)Nc1cccc(-n2cc(-c3ccc(F)cc3)c(C)cc2=O)c1 [Compound 416],< 50,< 50
Cc1cc(=O)n(-c2cccc(NC(=O)N(C)C)c2)cc1-c1ccc(F)cc1 [Compound 417],< 50,< 50
Cc1cc(=O)n(-c2ccc(NC(N)=O)cc2)cc1-c1ccc(F)cc1 [Compound 418],50 to 200,50 to 200
CNC(=O)Nc1cccc(-n2cc(-c3ccc(F)cc3)c(C)cc2=O)c1 [Compound 419],50 to 200,50 to 200

Structure (SMILES),IC50 [1] [µM],EC50 [2] [µM]
Cc1cc(=O)n(-c2ccc(OC(F)(F)F)cc2)cc1-c1ccc2c(c1)OCC(=O)N2 [Compound 424],< 50,50 to 200
Cc1cc(=O)n(-c2ccc(OC(F)(F)F)cc2)cc1-c1ccc2c(c1)OCC(=O)N2C [Compound 425],< 50,< 50
CCn1c(=O)oc2cc(-c3cn(-c4ccc(OC(F)(F)F)cc4)c(=O)cc3C)ccc21 [Compound 430],< 50,< 50
Cc1cc(=O)n(-c2ccc(Cl)cc2)cc1-c1cn[nH]c1 [Compound 431],50 to 200,> 200
Cc1cc(=O)n(-c2ccc(Cl)cc2)cc1-c1ccnnc1 [Compound 432],50 to 200,> 200
Cn1cc(-c2cn(-c3ccc(OC(F)(F)F)cc3)c(=O)cc2NCc2cncnc2)cn1 [Compound 531],< 50,< 50
Cn1cc(C2=CN(c3ccc(OC(F)(F)F)cc3)CC=C2Oc2ccc(C(N)=O)cc2)cn1 [Compound 535],< 50,< 50
Cn1cc(-c2c[nH]c(=O)cc2NCc2ncccn2)cn1 [Compound 542],< 50,< 50
CCOc1ccc(-n2cc(-c3cnn(C)c3)c(NCc3ccccc3)cc2=O)c(C)c1 [Compound 543],< 50,< 50
Cn1cc(-c2c[nH]c(=O)cc2NCc2ccccn2)cn1 [Compound 544],< 50,50 to 200
O=c1cc(NCc2ccccn2)ccn1-c1ccc(OC(F)(F)F)cc1 [Compound 547],< 50,< 50
CCOc1ccc(-n2cc(-c3cnn(C)c3)c(OCCOC)cc2=O)c(C)c1 [Compound 550],< 50,< 50
Cc1cc(=O)n(-c2ccc(OC(F)(F)F)cc2)cc1-c1ccc2oc(=O)[nH]c2c1 [Compound 553],< 50,< 50
Cc1cc(=O)n(-c2ccccc2NC(N)=O)cc1-c1ccc(F)cc1 [Compound 557],< 50,< 50
CCn1c(=O)oc2ccc(-c3c[nH]c(=O)cc3C)cc21 [Compound 562],< 50,< 50
Cc1cc(=O)[nH]cc1-c1ccc2c(c1)OCC(=O)N2C [Compound 563],< 50,< 50
Cc1cc(=O)[nH]cc1-c1cccc2c1OC(F)(F)O2 [Compound 565],< 50,< 50
Cc1nc2c(=O)n(-c3ccc(OC(F)(F)F)cc3)cc(-c3cnn(C)c3)c2o1 [Compound 569],< 50,< 50
Cc1nc2c(=O)n(-c3ccc(OC(F)(F)F)cc3)ccc2o1 [Compound 570],> 200,> 200
CCOc1ccc(-n2cc(-c3cn[nH]c3)c3nccnc3c2=O)c(C)c1 [Compound 574],< 50,< 50
O=c1c2nccnc2ccn1-c1ccc(OC(F)(F)F)cc1 [Compound 575],< 50,< 50
